Assay results from patent US9012446B2, “Amino-oxazines and amino-dihydrothiazine compounds as beta-secretase modulators and methods of use” (Amgen Inc., priority 2010, dated 2015).
Where “and” joins values, the source holds several entries; their conditions need not be identical. Identical values can stand only once. Like-named read-outs stand apart in the source and are kept apart here.

Key:
BACE = BACE (Homo sapiens, UniProt P56817); assay: In vitro enzymatic BACE FRET assay; type: biochemical; details: average IC50, enzyme assay; read-out: BACE 1 FRET assay
Sequence of BACE (P56817 46-501, species assumed): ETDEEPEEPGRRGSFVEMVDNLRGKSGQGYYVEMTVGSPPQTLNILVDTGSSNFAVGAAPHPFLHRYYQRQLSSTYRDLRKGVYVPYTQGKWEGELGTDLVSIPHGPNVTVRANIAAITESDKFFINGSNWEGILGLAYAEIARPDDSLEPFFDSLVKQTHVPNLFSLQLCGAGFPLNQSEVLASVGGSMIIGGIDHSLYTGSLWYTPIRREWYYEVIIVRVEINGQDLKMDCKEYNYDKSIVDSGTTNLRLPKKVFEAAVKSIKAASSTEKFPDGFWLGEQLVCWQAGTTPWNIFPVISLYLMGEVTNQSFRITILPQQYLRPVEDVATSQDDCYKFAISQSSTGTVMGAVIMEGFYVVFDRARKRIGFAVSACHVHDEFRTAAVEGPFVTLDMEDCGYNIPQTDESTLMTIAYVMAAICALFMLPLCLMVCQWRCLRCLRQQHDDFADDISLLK
Method in brief: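 Fluorescence […] after Tris quench reports cleavage of a 50 nM quenched peptide substrate over 1 h. Beforehand, 0.2 nM enzyme sits 1 h with inhibitor dilutions. Buffer: 0.05 M acetate pH 4.2, 100 uM genapol, 10% DMSO final.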

Aβ40 = assay: In vitro BACE cell-based assay (Aβ40 sandwich ELISA, cells stably expressing APP)
Method in brief: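 Read-out is Aβ40 in cell supernatants, quantified by sandwich ELISA (capture 3 h, detection 2 h, both 4° C) with Delfia time-resolved fluorescence. Cells stably expressing APP were dosed across 10 concentrations from 100 μM or 10 μM top, 0.1% DMSO final; IC50 fitted from percent of control.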

[1] = Homo sapiens, HEK293, average IC50, read-out: HEK cell assay
[2] = Homo sapiens, HEK293, average IC50, cell assay, HEK cells

Structure (SMILES) | IC50 (BACE) | IC50 (Aβ40; [1]) [nM] | IC50 (Aβ40; [2]) [nM] | IC50 (Aβ40; average IC50, cell assay, HEK cells) [nM] | IC50 (Aβ40; average IC50, read-out: HEK cell assay) [nM]
CC(C)(C)C#Cc1cnc2c(c1)[C@@]1(COCC(N)=N1)c1cc(-c3cncnc3)c(F)cc1O2 [compound 97] | 419 nM |  | 273 |  | 
NC1=N[C@]2(CCO1)c1cc(-c3cccnc3F)ccc1Oc1c(F)cc(C3=CCOCC3)cc12 [compound 169] | 3070 nM | 3400 |  |  | 
CC(C)C#Cc1cnc2c(c1)[C@]1(COCC(N)=N1)c1cc(-c3cccnc3F)ccc1O2 [compound 213] | 0.6 nM | 1 |  |  | 
NC1=N[C@@]2(COC1)c1cc(-c3cc(Cl)ccc3F)ccc1Oc1ncc(N3CC4CCC(C3)O4)cc12 [compound 94] | 1.3 nM |  | 1.3 |  | 
NC1=N[C@@]2(COC1)c1cc(-c3cccnc3)ccc1Oc1cnc(-c3ccnc(F)c3)cc12 [compound 116] | 0.6 nM |  | 0.8 |  | 
NC1=N[C@]2(CCO1)c1cc(-c3cccnc3F)ccc1Oc1c2cc(-c2ccnc(F)c2)nc1F (racemic) [compound 103] | 2.2 nM |  |  | 6.9 | 
COc1cc2c(cn1)Oc1ccc(-c3cccnc3F)cc1[C@@]21COCC(N)=N1 [compound 123] | 2.2 nM |  | 3.3 |  | 
COc1cc2c(cn1)Oc1ccc(-c3cccc(F)c3)cc1[C@@]21COCC(N)=N1 [compound 252] | 10.6 nM | 50 |  |  | 
NC1=N[C@]2(CCS1)c1cc(-c3cccnc3F)ccc1Oc1cnc(C3=CCOCC3)cc12 [compound 194] | 473 nM | 937 |  |  | 
CC(C)(C)C#Cc1cnc2c(c1)[C@]1(COCC(N)=N1)c1cc(-c3cccnc3)ccc1O2 [Example 52, (S)-3-(3,3-dimethylbut-1-ynyl)-7-(pyridin-3-yl)-2′,6′-dihydrospiro[chromeno[2,3-b]pyridine-5,3′-[1,4]oxazin]-5′-amine] | 0.4 nM | 0.3 |  |  | 
NC1=N[C@@]2(COC1)c1cc(-c3cc(F)ccc3F)ccc1Oc1ncc(-c3ccncc3)cc12 [compound 217] | 3.6 nM | 4.3 |  |  | 
CC1(COc2cc(F)c3c(c2)[C@]2(CCOC(N)=N2)c2cc(-c4cccnc4)ccc2O3)COC1 [compound 160] | 6.3 nM |  | 5.9 |  | 
NC1=N[C@@]2(CCS1)c1cc(-c3cccnc3F)ccc1Oc1ncc(C3=CCCOC3)cc12 [compound 272] | 4 nM | 11 |  |  | 
CC(C)(C)COc1ccc2c(c1)[C@]1(COCC(N)=N1)c1cc(Br)ccc1O2 [compound 135, (3R)-2′-bromo-7′-(2,2-dimethylpropoxy)-6H-spiro[1,4-oxazine-3,9′-xanthen]-5-amine] | 102 nM |  | 587 |  | 
NC1=N[C@@]2(CCO1)c1cc(-c3cncc(F)c3)ccc1Oc1c2cc(C2=CCOCC2)nc1F [compound 228] | 0.3 nM | 0.7 |  |  | 
COc1cc2c(cn1)Oc1ccc(-c3ccc(F)c(F)c3)cc1[C@@]21COCC(N)=N1 [Example 50, (S)-7-(3,4-difluorophenyl)-3-methoxy-2′,6′-dihydrospiro[chromeno[2,3-c]pyridine-5,3′-[1,4]oxazin]-5′-amine] | 30.9 nM | 106 |  |  | 

Results, then the compound that gave them:

IC50 (BACE) | IC50 (Aβ40; [1]) [nM] | IC50 (Aβ40; [2]) [nM] | IC50 (Aβ40; average IC50, cell assay, HEK cells) [nM] | IC50 (Aβ40; average IC50, read-out: HEK cell assay) [nM] | Structure (SMILES)
2530 nM | 83.1 |  |  |  | NC1=N[C@]2(CCS1)c1cc(-c3cccnc3F)ccc1Oc1c(F)cc(C3=CCOCC3)cc12 [compound 196]
553 nM | 248 |  |  |  | NC1=N[C@]2(CCO1)c1cc(-c3cccnc3F)ccc1Oc1c(F)cc(-c3ccncc3)cc12 [compound 165]
0.7 nM |  | 2.5 |  |  | CC#Cc1cncc(-c2ccc3c(c2)[C@@]2(COCC(N)=N2)c2cc(C4=CCOCC4)cc(F)c2O3)c1 [compound 131]
4.3 nM | 25.5 |  |  |  | CCOc1cc2c(cn1)Oc1ccc(-c3cccc(F)c3)cc1[C@@]21COCC(N)=N1 [compound 256]
0.7 nM |  | 3.9 |  |  | NC1=N[C@@]2(COC1)c1cc(-c3cc(Cl)ccc3F)ccc1Oc1ncc(N3CCOCC3)cc12 [compound 93]
0.3 nM | 0.5 |  |  |  | NC1=N[C@@]2(COC1)c1cc(-c3cccnc3F)ccc1Oc1c2cc(-c2cccnc2)nc1F [compound 243]
6.8 nM |  | 5.1 |  |  | COc1cc2c(cn1)Oc1ccc(-c3cccnc3)cc1[C@@]21COCC(N)=N1 [compound 124]
2.2 nM |  | 12.4 |  |  | COc1cc2c(cn1)Oc1ccc(-c3cc(F)ccc3Cl)cc1[C@@]21COCC(N)=N1 [compound 125]
29.9 nM | 159 |  |  |  | COc1cc(F)c2c(c1)[C@]1(CCSC(N)=N1)c1cc(-c3cccnc3F)ccc1O2 [compound 187]
19.6 nM | 62.5 |  |  |  | CC(C)(C)COc1cc2c(cn1)Oc1ccc(Br)cc1[C@@]21COCC(N)=N1 [compound 251]
0.5 nM |  | 1.5 |  |  | NC1=N[C@@]2(COC1)c1cc(-c3cncc(F)c3)ccc1Oc1cnc(-c3cncc(F)c3)cc12 [compound 112]
87.3 nM |  |  |  | 374 | COc1cc(F)c2c(c1)[C@@]1(CCSC(N)=N1)c1cc(-c3cccnc3F)ccc1O2 (racemic) [compound 191]
0.3 nM |  | 1.4 |  |  | CC(C)(C#N)COc1cc2c(cn1)Oc1ccc(-c3cc(Cl)ccc3F)cc1[C@@]21COCC(N)=N1 [compound 127]
17.3 nM |  | 109 |  |  | NC1=N[C@@]2(COC1)c1cc(Br)ccc1Oc1c2cc(N2CCC(F)(F)CC2)nc1F [compound 128]
20.6 nM |  | 24.2 |  |  | NC1=N[C@@]2(CCO1)c1cc(-c3cccnc3F)ccc1Oc1c2cc(-c2cccnc2F)nc1F [compound 105]
958 nM | 3020 |  |  |  | NC1=N[C@]2(CCO1)c1cc(-c3cccnc3F)ccc1Oc1c(F)cc(N3CCC(F)(F)CC3)cc12 [compound 162]
170 nM | 1580 |  |  |  | N#Cc1cccc(-c2ccc3c(c2)[C@]2(CCOC(N)=N2)c2cc(-c4ccnc(F)c4)nc(F)c2O3)c1 [compound 222]
5.7 nM |  | 3.7 |  |  | NC1=N[C@@]2(CCO1)c1cc(-c3cncc(F)c3)ccc1Oc1cnc(C3=CCOCC3)cc12 [compound 143]
1.2 nM |  | 0.6 |  |  | CC(C)(C)C#Cc1cnc2c(c1)[C@]1(COCC(N)=N1)c1cc(-c3cncnc3)c(F)cc1O2 [compound 96]
0.5 nM | 0.7 |  |  |  | NC1=N[C@@]2(COC1)c1cc(-c3cccnc3F)ccc1Oc1c2cc(N2CCOCC2)nc1F [Example 58, (S)-1-fluoro-7-(2-fluoropyridin-3-yl)-3-morpholino-2′,6′-dihydrospiro[chromeno[2,3-c]pyridine-5,3′-[1,4]oxazin]-5′-amine 2,2,2-trifluoroacetate]
2 nM and 0.7 nM | 13.1 | 15.5 |  |  | CC(C)(C)COc1ccc2c(c1)[C@]1(COCC(N)=N1)c1cc(-c3cccnc3F)ccc1O2 [Example 67, (3S)-2′-(2,2-dimethylpropoxy)-7′-(2-fluoro-3-pyridinyl)-6H-spiro[1,4-oxazine-3,9′-xanthen]-5-amine]
3.9 nM |  | 5.8 |  |  | NC1=N[C@@]2(COC1)c1cc(-c3cccnc3F)ccc1Oc1cnc([C@H]3CCCOC3)cc12 [compound 80]
0.8 nM | 0.5 |  |  |  | NC1=N[C@@]2(CCO1)c1cc(-c3cncc(F)c3)ccc1Oc1c2cc(C2=CCCOC2)nc1F [compound 236]
10.8 nM |  | 3.4 |  |  | NC1=N[C@@]2(CCO1)c1cc(-c3cncc(F)c3)ccc1Oc1cnc(-c3cccnc3)cc12 [compound 140]
